PMC2939729 (Cancer cell, 2010)

How the values were obtained:
[1] = biological target: T1, BMK1 (Homo sapiens, UniProt Q13164); experiment: in vitro ATP-site competition binding assay, panel of 402 kinases; details: 10 μM inhibitor
Target sequence in this assay (Q13164 whole entry, species assumed): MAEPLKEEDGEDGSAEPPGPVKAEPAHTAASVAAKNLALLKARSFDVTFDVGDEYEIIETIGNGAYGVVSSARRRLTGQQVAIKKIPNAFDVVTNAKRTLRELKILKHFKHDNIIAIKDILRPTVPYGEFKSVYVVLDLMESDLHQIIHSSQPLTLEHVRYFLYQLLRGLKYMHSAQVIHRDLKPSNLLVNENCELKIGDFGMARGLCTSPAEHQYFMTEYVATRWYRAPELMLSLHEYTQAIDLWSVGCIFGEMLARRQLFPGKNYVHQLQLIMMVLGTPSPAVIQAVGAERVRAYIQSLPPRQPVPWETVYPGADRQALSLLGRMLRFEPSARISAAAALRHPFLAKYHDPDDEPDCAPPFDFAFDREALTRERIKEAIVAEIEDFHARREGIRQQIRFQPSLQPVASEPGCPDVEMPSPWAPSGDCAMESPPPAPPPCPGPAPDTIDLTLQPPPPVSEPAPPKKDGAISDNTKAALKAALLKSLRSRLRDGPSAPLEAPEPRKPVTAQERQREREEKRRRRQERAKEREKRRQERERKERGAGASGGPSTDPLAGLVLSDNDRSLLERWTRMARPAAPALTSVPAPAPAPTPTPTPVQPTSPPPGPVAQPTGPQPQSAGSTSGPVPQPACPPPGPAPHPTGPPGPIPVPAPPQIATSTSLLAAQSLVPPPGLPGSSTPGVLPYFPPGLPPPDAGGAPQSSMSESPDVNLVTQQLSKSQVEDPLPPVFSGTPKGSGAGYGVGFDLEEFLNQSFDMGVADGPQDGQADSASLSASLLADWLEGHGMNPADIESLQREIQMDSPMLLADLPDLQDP

[2] = biological target: T2, DCAMKL1 (Homo sapiens, UniProt O15075); experiment: as above; details: 10 μM inhibitor
T2 sequence (O15075 1-740): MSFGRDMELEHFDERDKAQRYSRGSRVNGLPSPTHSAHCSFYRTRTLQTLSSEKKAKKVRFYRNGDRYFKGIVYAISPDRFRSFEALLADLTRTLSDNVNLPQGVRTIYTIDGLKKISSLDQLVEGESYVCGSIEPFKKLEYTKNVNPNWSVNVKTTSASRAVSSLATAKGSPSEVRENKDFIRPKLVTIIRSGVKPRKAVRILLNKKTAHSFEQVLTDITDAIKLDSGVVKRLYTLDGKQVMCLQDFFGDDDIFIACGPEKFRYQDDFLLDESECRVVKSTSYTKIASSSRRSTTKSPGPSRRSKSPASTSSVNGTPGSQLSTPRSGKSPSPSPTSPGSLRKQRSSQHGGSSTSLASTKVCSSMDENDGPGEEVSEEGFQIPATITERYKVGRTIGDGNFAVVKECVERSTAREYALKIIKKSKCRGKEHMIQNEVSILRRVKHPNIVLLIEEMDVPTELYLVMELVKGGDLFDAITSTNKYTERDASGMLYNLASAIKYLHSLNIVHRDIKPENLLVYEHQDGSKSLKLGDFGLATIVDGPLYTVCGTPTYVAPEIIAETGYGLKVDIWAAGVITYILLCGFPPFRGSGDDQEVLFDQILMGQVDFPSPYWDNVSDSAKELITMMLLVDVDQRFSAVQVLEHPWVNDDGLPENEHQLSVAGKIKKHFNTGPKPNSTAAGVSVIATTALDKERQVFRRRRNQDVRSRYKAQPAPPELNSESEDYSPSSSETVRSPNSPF

[3] = biological target: T3, DCAMKL2 (Homo sapiens, UniProt Q8N568); experiment: as above; details: 10 μM inhibitor
T3 sequence (Q8N568 1-766): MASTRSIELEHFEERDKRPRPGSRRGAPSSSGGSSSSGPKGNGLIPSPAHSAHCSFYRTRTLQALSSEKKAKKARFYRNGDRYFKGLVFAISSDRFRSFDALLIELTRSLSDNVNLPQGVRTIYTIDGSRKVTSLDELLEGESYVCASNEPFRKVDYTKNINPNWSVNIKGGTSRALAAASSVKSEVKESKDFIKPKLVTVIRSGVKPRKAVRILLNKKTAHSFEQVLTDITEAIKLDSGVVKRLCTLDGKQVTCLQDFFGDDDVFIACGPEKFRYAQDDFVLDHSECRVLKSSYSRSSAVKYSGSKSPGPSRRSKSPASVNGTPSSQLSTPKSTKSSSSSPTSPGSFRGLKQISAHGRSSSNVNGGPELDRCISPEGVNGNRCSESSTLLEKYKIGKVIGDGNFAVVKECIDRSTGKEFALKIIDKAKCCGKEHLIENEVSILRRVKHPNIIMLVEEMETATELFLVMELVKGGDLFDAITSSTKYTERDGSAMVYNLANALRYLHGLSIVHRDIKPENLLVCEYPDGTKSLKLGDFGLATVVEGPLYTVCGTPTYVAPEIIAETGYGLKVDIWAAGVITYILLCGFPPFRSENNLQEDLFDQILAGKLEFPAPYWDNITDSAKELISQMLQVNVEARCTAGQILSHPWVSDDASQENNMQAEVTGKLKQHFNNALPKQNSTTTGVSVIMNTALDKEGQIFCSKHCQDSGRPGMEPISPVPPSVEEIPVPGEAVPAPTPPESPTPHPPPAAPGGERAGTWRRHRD

[4] = biological target: T4, PLK4 (Homo sapiens, UniProt O00444); experiment: Inhibitory effect on PLK4 in vitro and in vivo
T4 sequence (O00444 1-970): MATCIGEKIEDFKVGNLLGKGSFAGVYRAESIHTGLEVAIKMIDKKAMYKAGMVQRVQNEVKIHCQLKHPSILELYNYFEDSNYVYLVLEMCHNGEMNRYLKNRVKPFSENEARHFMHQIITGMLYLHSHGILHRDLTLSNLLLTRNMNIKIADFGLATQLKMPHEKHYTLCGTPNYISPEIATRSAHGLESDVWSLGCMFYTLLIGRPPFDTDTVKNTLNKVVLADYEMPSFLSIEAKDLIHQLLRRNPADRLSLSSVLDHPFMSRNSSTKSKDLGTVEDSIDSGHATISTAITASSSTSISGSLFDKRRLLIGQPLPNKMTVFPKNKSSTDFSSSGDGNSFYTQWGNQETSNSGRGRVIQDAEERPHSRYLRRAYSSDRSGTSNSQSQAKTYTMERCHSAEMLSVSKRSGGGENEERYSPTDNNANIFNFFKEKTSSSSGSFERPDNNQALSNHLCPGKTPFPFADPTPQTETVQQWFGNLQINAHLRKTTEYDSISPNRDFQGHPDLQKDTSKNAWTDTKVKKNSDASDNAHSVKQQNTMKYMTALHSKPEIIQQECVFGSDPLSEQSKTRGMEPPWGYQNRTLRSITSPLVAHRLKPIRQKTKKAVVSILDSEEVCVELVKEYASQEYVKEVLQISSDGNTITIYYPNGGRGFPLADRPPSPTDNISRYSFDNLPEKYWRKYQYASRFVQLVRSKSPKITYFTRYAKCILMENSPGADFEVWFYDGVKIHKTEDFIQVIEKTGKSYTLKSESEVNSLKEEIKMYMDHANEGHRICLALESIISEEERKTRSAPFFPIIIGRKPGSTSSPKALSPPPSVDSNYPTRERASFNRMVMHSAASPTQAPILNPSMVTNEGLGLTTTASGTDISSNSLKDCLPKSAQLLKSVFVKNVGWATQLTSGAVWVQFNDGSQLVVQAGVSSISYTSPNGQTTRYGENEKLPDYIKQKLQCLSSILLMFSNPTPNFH

[5] = biological target: T1, BMK1; experiment: EGF-induced BMK1 activation in HeLa cells; type: cell-based; details: 1 μM compound for one hour, EGF 17 min
Target sequence in this assay (Q13164 whole entry): as the sequence (Q13164 whole entry, species assumed) above

[6] = system: ERK1/2; experiment: EGF-induced ERK1/2 activation in HeLa cells; type: cell-based, human; details: 1 μM compound for one hour, EGF 17 min
[7] = biological target: T1, BMK1; experiment: in vitro kinase assay of BMK1 immunoprecipitated from HEK293 cells; type: biochemical; details: BMK1 immunoprecipitated from HEK293 co-transfected with MEK5D and BMK1
Target sequence in this assay (Q13164 whole entry, species assumed): as the sequence (Q13164 whole entry, species assumed) above

[8] = system: HeLa cells; experiment: HeLa cell proliferation, MTT assay; type: cell-based, human; details: 5 μM, 48 hr, compared with Ad-BMK1(AEF)
[9] = system: cancer cell lines; experiment: Proliferation of a wide variety of cancer cell lines; type: cell-based
[10] = Pharmacokinetics in Sprague-Dawley rats; type: in vivo; details: single oral dose of 2 mg/kg
[11] = Tolerability experiments in mice, 14 days

Structure (SMILES): CCOc1cc(N2CCC(O)CC2)ccc1Nc1ncc2c(n1)N(C)c1ccccc1C(=O)N2C [XMD8-92]
- displacement by XMD8-92 [1]: greater than 90%
- displacement by XMD8-92 [2]: greater than 90%
- displacement by XMD8-92 [3]: greater than 90%
- inhibitory effect on PLK4 [4]: no significant inhibitory effect
- Growth factor-induced activation of cellular BMK1 [5]: effectively blocked
- Growth factor-induced activation of cellular ERK1/2 [6]: but not the structurally similar ERK1/2
- BMK1 activity in in vitro kinase assays [7]: significantly reduced
- extent of inhibition of proliferation [8]: indistinguishable from that by dominant negative BMK1
- effect on proliferation [9]: inhibitory effect
- maximal plasma concentrations [10]: approximately 500 nM
- time of maximal plasma concentrations [10]: ≤ 30 min
- plasma concentration remaining 8 hr post dose ([10]; 8 hr): 34 nM
- vasculature instability ([11]; XMD8-92-treated mice): No vasculature instability
- plasma concentrations of drug ([11]; mice, IP dosing of 50 mg/kg, maintained throughout the 14 days): approximately 10 μM
